Here are results for nine compounds from patent US9238626B2 (priority 2012, dated 2016).

Broadly, the IC50 is the concentration at which inhibition is half-maximal.

For assay [1], the system named is human recombinant AChE-induced Aβ1-40 aggregation. Put plainly: AChE-induced Aβ1-40 aggregation inhibition assay (thioflavin T). As to conditions: inhibitor 100 μM.
Experimental: Aβ1-40, supplied as trifluoroacetate salt, was purchased from Bachem AG (Germany). Aβ1-40 (2 mg mL^−1) was dissolved in HFIP, lyophilized, and then resolubilized in DMSO to get a 2.3 mM Aβ1-40 solution. 1 mM Solutions of tested inhibitors were prepared by dissolution in MeOH.
Aliquots of 2 μL Aβ1-40 peptide were incubated for 24 h at room temperature in 0.215 M sodium phosphate buffer (pH 8.0) at a final concentration of 230 μM. […] The final volume of each vial was 20 μL. Each assay was run in duplicate. To quantify amyloid fibril formation, the thioflavin T fluorescence method was then applied (cf. H. Naiki et al., “Kinetic Analysis of Amyloid Fibril Polymerization in Vitro”, Lab. Invest. 1991, vol. 65, pp. 104-110). The fluorescence intensities due to β-sheet conformation were monitored for 300 s at λem=490 nm (λexc=446 nm). The percent inhibition of the AChE-induced aggregation due to the presence of the tested compound was calculated by the following expression: 100−(IFi/IFo×100) where IFi and IFe are the fluorescence intensities obtained for Aβ plus AChE in the presence and in the absence of inhibitor, respectively, minus the fluorescence intensities due to the respective blanks.
Assay [2] addresses Electrophorus electricus (ee) AChE (Electrophorus electricus (Electric eel) (Gymnotus electricus), UniProt O42275). The assay is described as follows: AChE inhibition assay (Ellman), eeAChE. The class given is biochemical. The protocol:
AChE inhibitory activity of compounds (Ia)-(Ie) and (−)-(Ib) and (+)-(Ib) was evaluated spectrophotometrically at 25° C. by the method of Ellman et al., using recombinant human AChE (hAChE) and Electrophorus electricus (ee) AChE and acetylthiocholine iodide as substrate (cf. G. L. Ellman et al., “New and Rapid Colorimetric Determination of Acetylcholinesterase Activity” Biochem. Pharmacol. 1961, vol. 7, pp. 88-95). For eeAChE inhibitory activity determination, the reaction took place in a final volume of 300 μL of 0.1 M phosphate-buffered solution pH 8.0, containing 0.03 unit/mL of ee AChE and 333 μM 5,5′-dithiobis(2-nitrobenzoic) acid (DTNB) solution used to produce the yellow anion of 5-thio-2-nitrobenzoic acid. Inhibition curves were performed in duplicates using at least 10 increasing concentrations of inhibitor and preincubating at 37° C. for 20 min. One duplicate sample without inhibitor was always present to yield 100% of AChE activity. Then, substrate acetylthiocholine (450 μM) was added and the reaction was developed at 37° C. for 5 min. The color production was measured at 414 nm.
(§1) Results are expressed as mean±S.E.M. of at least 4 experiments performed in duplicate. DTNB, acetylthiocholine, butyrylthiocholine, and enzymes were purchased from Sigma.

For a further assay, the target named is human serum BChE (Homo sapiens (Human), UniProt P06276). Put plainly: BChE inhibition assay (Ellman). The class given is biochemical. As for the experimental part:
BChE inhibitory activity determinations were carried out similarly by the method of Ellman et al., using 0.02 unit/mL of human serum BChE and 300 μM butyrylthiocholine, instead of AChE and acetylthiocholine, in a final volume of 300 μL.
as §1
Background: Ellman's reagent forms a yellow product with free thiols.

The next assay deals with β-Secretase (BACE-1) (Homo sapiens (Human), UniProt P56817). The assay is described as follows: β-Secretase (BACE-1) inhibition assay. The class given is biochemical. The protocol: β-Secretase (BACE-1, Sigma) inhibition studies were performed by employing a peptide mimicking APP sequence as substrate (methoxycoumarin-[…]dinitrophenyl, M-2420, Bachem). The following procedure was employed: 5 μL of test compound (or DMSO, if preparing a control well) were pre-incubated with 175 μL of the enzyme (in 20 mM sodium acetate containing CHAPS 0.1% w/v) for 1 h at room temperature. The substrate (3 μM, final concentration) was then added and left to react for 15 min. The fluorescence signal was read at λem=405 nm (λexc=320 nm). […] The fluorescence intensities with and without inhibitor were compared and the percent inhibition due to the presence of test compounds was calculated. The background signal was measured in control wells containing all the reagents, except BACE-1 and subtracted. […] Inhibition curves were obtained by plotting the % inhibition versus the logarithm of inhibitor concentration in the assay sample. The linear regression parameters were determined and the IC50 extrapolated (GraphPad Prism 4.0, GraphPad Software Inc.).
β-Secretase (BACE-1), sequence (P56817 46-501): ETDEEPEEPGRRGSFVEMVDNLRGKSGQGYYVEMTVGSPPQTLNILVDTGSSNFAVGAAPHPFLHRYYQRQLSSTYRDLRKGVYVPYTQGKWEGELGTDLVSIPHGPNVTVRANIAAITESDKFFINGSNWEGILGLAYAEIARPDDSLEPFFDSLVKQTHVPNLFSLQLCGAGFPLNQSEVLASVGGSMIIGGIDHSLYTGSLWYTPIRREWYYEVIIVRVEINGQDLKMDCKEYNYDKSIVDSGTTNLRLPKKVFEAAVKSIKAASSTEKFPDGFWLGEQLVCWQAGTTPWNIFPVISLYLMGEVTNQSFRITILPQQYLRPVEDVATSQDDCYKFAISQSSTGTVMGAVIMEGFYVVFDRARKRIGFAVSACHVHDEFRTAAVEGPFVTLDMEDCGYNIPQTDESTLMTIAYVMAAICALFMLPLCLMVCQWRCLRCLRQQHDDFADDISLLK

A further assay has as its target Aβ1-42 (Homo sapiens, UniProt P05067). Put plainly: Aβ1-42 self-aggregation inhibition assay (thioflavin T). The class given is biochemical. As to conditions: inhibitor 10 μM, [Aβ]/[I]=5/1. As for the experimental part:
As reported in a previously published protocol (cf. M. Bartolini et al., “Insight into the Kinetic of Amyloid Beta (1-42) Peptide Self-Aggregation: Elucidation of Inhibitors' Mechanism of Action. ChemBioChem 2007, vol. 8, pp. 2152-2161), HFIP pretreated Aβ1-42 samples (Bachem AG, Switzerland) were solubilized with a CH3CN/0.3 mM Na2CO3250 mM NaOH (48.4:48.4:3.2) mixture to obtain a 500 μM solution. Experiments were performed by incubating the peptide in 10 mM phosphate buffer (pH=8.0) containing 10 mM NaCl, at 30° C. for 24 h (final Aβ concentration 50 μM) with and without inhibitor (10 μM, Aβ/inhibitor=5/1). Blanks containing the tested inhibitors were also prepared and tested.

Structures can show the parent of a compound that is named as a salt. Where two headings read alike, the source gives them in different places.

human serum BChE, sequence (P06276 29-602): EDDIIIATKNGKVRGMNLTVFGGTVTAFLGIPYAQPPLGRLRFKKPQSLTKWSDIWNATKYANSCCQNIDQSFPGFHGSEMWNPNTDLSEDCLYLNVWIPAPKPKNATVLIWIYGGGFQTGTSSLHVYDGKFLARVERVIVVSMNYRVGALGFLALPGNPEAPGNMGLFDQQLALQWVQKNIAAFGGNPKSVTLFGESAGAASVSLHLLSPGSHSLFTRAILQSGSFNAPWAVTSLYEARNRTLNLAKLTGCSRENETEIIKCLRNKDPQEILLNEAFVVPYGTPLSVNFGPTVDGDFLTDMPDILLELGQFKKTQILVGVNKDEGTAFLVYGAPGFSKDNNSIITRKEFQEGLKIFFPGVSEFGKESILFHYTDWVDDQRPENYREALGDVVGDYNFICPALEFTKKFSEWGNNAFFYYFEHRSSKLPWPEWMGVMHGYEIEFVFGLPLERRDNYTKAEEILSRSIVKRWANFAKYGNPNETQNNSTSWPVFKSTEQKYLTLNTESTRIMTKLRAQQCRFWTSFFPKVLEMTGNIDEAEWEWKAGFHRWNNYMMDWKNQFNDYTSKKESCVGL
Electrophorus electricus (ee) AChE, sequence (O42275 whole entry, looked up): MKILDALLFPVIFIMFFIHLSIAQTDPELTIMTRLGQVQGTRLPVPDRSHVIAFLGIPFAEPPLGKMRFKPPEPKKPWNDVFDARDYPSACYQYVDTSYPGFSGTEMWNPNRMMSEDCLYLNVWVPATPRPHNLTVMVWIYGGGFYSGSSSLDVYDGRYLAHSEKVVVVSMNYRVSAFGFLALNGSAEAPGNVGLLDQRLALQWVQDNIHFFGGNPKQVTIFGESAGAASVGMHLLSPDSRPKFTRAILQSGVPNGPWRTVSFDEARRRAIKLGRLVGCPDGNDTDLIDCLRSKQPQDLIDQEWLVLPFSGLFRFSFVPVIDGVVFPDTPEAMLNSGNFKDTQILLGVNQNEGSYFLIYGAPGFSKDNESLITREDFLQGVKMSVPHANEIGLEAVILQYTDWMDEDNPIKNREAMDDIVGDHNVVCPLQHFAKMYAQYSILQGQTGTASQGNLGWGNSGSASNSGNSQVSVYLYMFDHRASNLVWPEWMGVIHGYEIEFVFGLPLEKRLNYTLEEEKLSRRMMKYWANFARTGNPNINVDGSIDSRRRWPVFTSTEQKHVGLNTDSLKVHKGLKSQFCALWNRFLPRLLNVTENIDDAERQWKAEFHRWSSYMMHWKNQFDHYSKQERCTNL

Consider `CC1=CC2Cc3nc4cc(Cl)ccc4c(NCCCCCCCCNC(=O)c4cc(O)c5c(c4)C(=O)c4cccc(O)c4C5=O)c3C(C1)C2` (racemic) [(±)-(Ia)•HCl, (±)-N-{8-[(3-chloro-6,7,10,11-tetrahydro-9-methyl-7,11-methanocycloocta[b]quinolin-12-yl)amino]octyl}-9,10-dihydro-4,5-dihydroxy-9,10-dioxoanthracene-2-carboxamide], for which the “AChE-induced Aβ1-40 aggregation (%)” value in assay [1] came to 44.7 ± 8.4%. Also, the IC50 was 88.6 ± 6.7 nM in assay [2], 350 ± 17 nM against human serum BChE and 980 ± 200 nM at β-Secretase (BACE-1). Besides, the “Aβ1-42 self-induced aggregation (%)” value at Aβ1-42 was determined as 33.1 ± 5.4%.
For the compound `CC1=CC2Cc3nc4cc(Cl)ccc4c(NCCCCCCCCCNC(=O)c4cc(O)c5c(c4)C(=O)c4cccc(O)c4C5=O)c3C(C1)C2` (racemic) [(±)-(Ib)•HCl, (±)-N-{9-[(3-chloro-6,7,10,11-tetrahydro-9-methyl-7,11-methanocycloocta[b]quinolin-12-yl)amino]nonyl}-9,10-dihydro-4,5-dihydroxy-9,10-dioxoanthracene-2-carboxamide], in assay [1], the “AChE-induced Aβ1-40 aggregation (%)” value amounted to 48.7 ± 8.4%. In addition, the IC50 in assay [2] came out at 32.6 ± 1.7 nM; against β-Secretase (BACE-1), 120 ± 100 nM. Besides, at Aβ1-42, the “Aβ1-42 self-induced aggregation (%)” value is 38.0 ± 4.6%.
Take `CC1=CC2Cc3nc4cc(Cl)ccc4c(NCCCCCCCCCCNC(=O)c4cc(O)c5c(c4)C(=O)c4cccc(O)c4C5=O)c3C(C1)C2` (racemic) [(±)-(Ic)•HCl, (±)-N-{10-[(3-chloro-6,7,10,11-tetrahydro-9-methyl-7,11-methanocycloocta[b]quinolin-12-yl)amino]decyl}-9,10-dihydro-4,5-dihydroxy-9,10-dioxoanthracene-2-carboxamide]: the “AChE-induced Aβ1-40 aggregation (%)” value in assay [1] is 29.2 ± 2.4%. In addition, the IC50 in assay [2] was determined as 46.7 ± 2.4 nM; on human serum BChE it was 1100 ± 40 nM; at β-Secretase (BACE-1) it was 1190 ± 200 nM. Further, the “Aβ1-42 self-induced aggregation (%)” value at Aβ1-42 was determined as 40.9 ± 4.4%.
Turning to `CC1=CC2Cc3nc4cc(Cl)ccc4c(NCCCCCCCCCCCNC(=O)c4cc(O)c5c(c4)C(=O)c4cccc(O)c4C5=O)c3C(C1)C2` (racemic) [(±)-(Id)•HCl, (±)-N-{11-[(3-chloro-6,7,10,11-tetrahydro-9-methyl-7,11-methanocycloocta[b]quinolin-12-yl)amino]undecyl}-9,10-dihydro-4,5-dihydroxy-9,10-dioxoanthracene-2-carboxamide], the “AChE-induced Aβ1-40 aggregation (%)” value in assay [1] came to 38.2 ± 2.6%. The IC50 amounted to 16.3 ± 2.3 nM in assay [2] (read-out: IC50 eeAChE), 645 ± 67 nM against human serum BChE and 1200 ± 100 nM against β-Secretase (BACE-1). Also, the “Aβ1-42 self-induced aggregation (%)” value on Aβ1-42 worked out at 35.3 ± 4.0%.
In the same order, the values of `CC1=CC2Cc3nc4cc(Cl)ccc4c(NCc4ccc(CNC(=O)c5cc(O)c6c(c5)C(=O)c5cccc(O)c5C6=O)cc4)c3C(C1)C2` (racemic) [(±)-(Ie)•HCl, (±)-N-{4-{[(3-chloro-6,7,10,11-tetrahydro-9-methyl-7,11-methanocycloocta[b]quinolin-12-yl)amino]methyl}benzyl}-9,10-dihydro-4,5-dihydroxy-9,10-dioxoanthracene-2-carboxamide] are 35.2 ± 1.8%, 60 ± 7.5 nM, 510 ± 20 nM, 2020 ± 400 nM and 32.4 ± 3.6%.
For the compound `CC1=C[C@@H]2Cc3nc4cc(Cl)ccc4c(N)c3[C@H](C1)C2.Cl` [(+)-Huprine Y•HCl, huprine Y, reference compound], in assay [1], the “AChE-induced Aβ1-40 aggregation (%)” value was determined as 9.1 ± 3.6%. The IC50 in assay [2] (read-out: IC50 eeAChE) was 373 ± 50 nM; at human serum BChE (read-out: IC50 hBChE), 170 ± 17 nM; at β-Secretase (BACE-1) (read-out: BACE-1 IC50), > 5000 nM. The “Aβ1-42 self-induced aggregation (%)” value at Aβ1-42 turned out to be 13.2 ± 1.9%.
In the case of `CC1=C[C@@H]2Cc3nc4cc(Cl)ccc4c(N)c3[C@H](C1)C2.Cl` [(−)-Huprine Y•HCl, huprine Y, reference compound], in assay [1], the “AChE-induced Aβ1-40 aggregation (%)” value was found to be 24.7 ± 1.3%. Moreover, the IC50 is 0.06 ± 0.01 nM in assay [2] (read-out: IC50 eeAChE), 222 ± 17 nM at human serum BChE (read-out: IC50 hBChE) and > 5000 nM on β-Secretase (BACE-1) (read-out: BACE-1 IC50). The “BACE-1 % inhibition at 5 μM” value at β-Secretase (BACE-1) (5 μM) was “(14.0 ± 0.1% at”. At Aβ1-42, the “Aβ1-42 self-induced aggregation (%)” value stood at 11.5 ± 5.2%.
As for `O=C(O)c1cc(O)c2c(c1)C(=O)c1cccc(O)c1C2=O` [Rhein, rhein, reference compound], the IC50 in assay [2] is 637 ± 87 nM; at human serum BChE (read-out: IC50 hBChE), 17000 ± 4220 nM.
On to “huprine Y [(±)-Huprine Y•HCl, reference compound]”, for which the “AChE-induced Aβ1-40 aggregation (%)” value in assay [1] is on record as 17.1 ± 4.5%. For the same compound, the IC50 in assay [2] (read-out: IC50 eeAChE) is 0.08 ± 0.01 nM.
